What all share (type): cell-based
The subject of series [1] is MDA-MB-231 (human breast cancer) cell line. Put plainly: MTT cell viability assay in MDA-MB-231 cells. The note with it: for viability at 10 µM / viability at 25 µM / viability at 50 µM: MDA-MB-231, 72 h; for viability at 10 µM / viability at 25 µM / viability at 50 µM / Cell Viability (%) ± SD: 72 h, MTT. The protocol:
IC50 values were determined by plotting values of percent cell viability against concentration of each of these compounds. […] The experiments were performed in triplicates, n = 3 and ± SE value was calculated for each data point.
The human breast cancer cell line MDA-MB-231 were cultured in Dulbecco’s Modified Eagle’s Medium (DMEM) (Gibco, St. Louis, USA) supplemented with 10% heat inactivated FBS (Fetal Bovine Serum, Gibco, USA) and 1% penicillin-streptomycin (Gibco Canada) in humidified CO2 incubator at 37 °C. The cells were maintained as a monolayer in 100 mm culture plate. The cells used for each experiment were of less than 8 passage number. Sub culturing of cells was performed every third day, followed by trypsin EDTA treatment.
Cell viability assay was performed as per standard protocols. […] Ltd, India). In brief, this is a homogeneous, colorimetric method for determining the number of viable cells in proliferation, cytotoxicity or chemosensitivity assays. MTT is bio reduced by cells into a formazan product that is soluble in the tissue culture medium. […] The absorbance of the formazan product at 595 nm was measured directly from 96-well assay plates without additional processing using a multimode plate reader (Bio-Rad) (iMark, India), as absorbance is directly proportional to the number of viable cells in culture. The percentage of viable cells in each group is determined with respect to the untreated control cells.
A general note: Tetrazolium assays rely on reduction of a dye to a coloured formazan, in cell work by metabolically active cells.

The subject of series [2] is MCF-7 breast cancer cells. Description: MTT cell viability assay in MCF-7 cells. The settings on record: Homo sapiens, MCF7, read-out: Cell Viability (%) ± SD.
In the next series the test system is MDA-MB-453 cells. Description: MTT cell viability assay in MDA-MB-453 cells. The note with it: Homo sapiens, read-out: Cell Viability (%) ± SD. From the text:
(§1) MDA-MB-231 represents a specific subtype, known as the triple negative breast cancer (TNBC). […] We also included normal mammary epithelial MCF-10A cells in our experiments to confirm if the growth-inhibitory activities of the selected compounds are truly cancer cell-specific. […] Furthermore, none of these compounds did have any growth inhibitory activity against normal breast epithelial cell (MCF-10A). The IC50 values for these compounds against MDA-MB-231 cells (Fig. 2) are also included in Table 4 for comparison. Cell viability assay was performed as per standard protocols. After 72 h of cell incubation in the presence or absence of each compound, cell viability was evaluated by using MTT ((3-(4,5-dimethylthiazol-2-yl)-2,5-diphenyltetrazolium bromide)) (Himedia Pvt. Ltd, India). In brief, this is a homogeneous, colorimetric method for determining the number of viable cells in proliferation, cytotoxicity or chemosensitivity assays. MTT is bio reduced by cells into a formazan product that is […]. After 72 h of compound treatment, the medium was removed and 100 μL of MTT (0.5 mg ml^−1 in media) was added to the cells and kept in the dark for 3 h at 37 °C in the CO2 incubator and the formazan formed was dissolved in 100 μL DMSO (Dimethyl Sulfoxide). The absorbance of the formazan product at 595 nm was measured directly from 96-well assay plates without additional processing using a multimode plate reader (Bio-Rad) (iMark, India), as absorbance is directly proportional to the number of viable cells in culture. The percentage of viable cells in each group is determined with respect to the untreated control cells.

Series [3] can be described thus: MTT cell viability assay in normal MCF-10A cells. The settings on record: human, MCF-10A normal mammary epithelial cells, read-out: Cell Viability (%) ± SD.
Description: as §1

Setting [4] is: Homo sapiens, MDA-MB-231, 10 µM, read-out: Cell Viability (%) ± SD.
The mark [5] stands for this setting: Homo sapiens, MDA-MB-231, 25 µM, read-out: Cell Viability (%) ± SD.
[6] abbreviates: Homo sapiens, MDA-MB-231, 50 µM, read-out: Cell Viability (%) ± SD.

For `O=C(/C=C/c1c[nH]c2ccc([N+](=O)[O-])cc12)C[C@@H]1O[C@H](CO)[C@H](O)[C@H](O)[C@H]1O` [Compound 14, (E)-4-(5-nitro-1H-indol-3-yl)-1-((2S,3R,4R,5R,6R)-3,4,5-trihydroxy-6-(hydroxymethyl)tetrahydro-2H-pyran-2-yl)but-3-en-2-one], the viability (as a rule, a read-out of living cells in per cent, often relative to untreated cells) at 10 µM in series [1] (setting [4]) stood at 73.6 ± 11.8%; in series [2] (MCF-7, 10 µM) it was 69.8 ± 1.8%; with MDA-MB-453 cells (MDA-MB-453, 10 µM), 82.2 ± 11.5%. For the same compound, the viability at 25 µM in series [1] (setting [5]) came out at 59 ± 12.5%; in series [2] (MCF-7, 25 µM) it was 66.8 ± 3%; in the series with MDA-MB-453 cells (MDA-MB-453, 25 µM) it was 65.3 ± 5.8%. Besides, the viability at 50 µM in series [1] (setting [6]) stood at 60.6 ± 5.61%. Further, the viability at 1 µM stood at 100 ± 4.5% in series [2] (MCF-7, 1 µM) and 80.8 ± 3.2% with MDA-MB-453 cells (MDA-MB-453, 1 µM). Further, the viability at 72 h, 25 µM in series [3] (25 µM) stood at 86.8 ± 2.8%. Moreover, in series [3] (50 µM), the viability at 72 h, 50 µM was determined as 84.6 ± 0.7%. Also, in series [3] (100 µM), the viability at 72 h, 100 µM was found to be 80 ± 1.5%.

Take `OC[C@H]1O[C@@H](Cc2cc(-c3c[nH]c4ccccc34)on2)[C@H](O)[C@@H](O)[C@@H]1O` [Compound 33, (2 S,3 R,4 R,5 S,6 R)-2-((5-(1H-indol-3-yl)isoxazol-3-yl)methyl)-6-(hydroxymethyl) tetrahydro-2H-pyran-3,4,5-triol]: in series [1] (setting [4]), the viability at 10 µM came out at 104 ± 12.7%. Moreover, the viability at 25 µM in series [1] (setting [5]) was determined as 106 ± 7.4%. In addition, the viability at 50 µM in series [1] (setting [6]) turned out to be 92.6 ± 15.2%.

For `OC[C@H]1O[C@@H](Cc2cc(-c3c[nH]c4ccc(Br)cc34)on2)[C@H](O)[C@@H](O)[C@@H]1O` [Compound 35, (2 S,3 R,4 R,5 S,6 R)-2-((5-(5-bromo-1H-indol-3-yl)isoxazol-3-yl)methyl)-6-(hydroxy-methyl)tetrahydro-2H-pyran-3,4,5-triol], the viability at 10 µM in series [1] (setting [4]) stood at 95.5 ± 4.91%. Also, in series [1] (setting [5]), the viability at 25 µM is 95.3 ± 3.6%. Further, the viability at 50 µM in series [1] (setting [6]) came out at 93.9 ± 9.08%.

In the case of `OC[C@H]1O[C@@H](Cc2cc(-c3c[nH]c4ccc(Cl)cc34)on2)[C@H](O)[C@@H](O)[C@@H]1O` [Compound 36, (2 S,3 R,4 R,5 S,6 R)-2-((5-(5-chloro-1H-indol-3-yl)isoxazol-3-yl)methyl)-6-(hydroxymethyl) tetrahydro-2H-pyran-3,4,5-triol], in series [1] (setting [4]), the viability at 10 µM was 97.8 ± 11.6%. Further, the viability at 25 µM in series [1] (setting [5]) turned out to be 96.8 ± 11.6%. Further, the viability at 50 µM in series [1] (setting [6]) was 99.3 ± 4.28%.

With `O=[N+]([O-])c1ccc2[nH]cc(-c3cc(C[C@@H]4O[C@H](CO)[C@H](O)[C@H](O)[C@H]4O)no3)c2c1` [Compound 38, (2 R,3 R,4 R,5 R,6 S)-2-(hydroxymethyl)-6-((5-(5-nitro-1H-indol-3-yl)isoxazol-3-yl)methyl) tetrahydro-2H-pyran-3,4,5-triol], in series [1] (setting [4]), the viability at 10 µM was 99.1 ± 5.63%. Further, in series [1] (setting [5]), the viability at 25 µM was found to be 94.5 ± 3.67%. Also, in series [1] (setting [6]), the viability at 50 µM was 94.9 ± 4.49%.

For `OC[C@H]1O[C@@H](Cc2cc(-c3c[nH]c4ccc(Br)cc34)on2)[C@H](O)[C@@H](O)[C@H]1O` [Compound 39, (2 S,3 R,4 R,5 R,6 R)-2-((5-(5-bromo-1H-indol-3-yl)isoxazol-3-yl)methyl)-6-(hydroxymethyl) tetrahydro-2H-pyran-3,4,5-triol], the viability at 10 µM in series [1] (setting [4]) came to 120 ± 17.6%. Moreover, the viability at 25 µM in series [1] (setting [5]) was found to be 89.4 ± 5.32%. Also, the viability at 50 µM in series [1] (setting [6]) turned out to be 90.3 ± 2.88%.

Regarding `OC[C@H]1O[C@@H](Cc2cc(-c3c[nH]c4ccc(Cl)cc34)on2)[C@H](O)[C@@H](O)[C@H]1O` [Compound 40, (2 S,3 R,4 R,5 R,6 R)-2-((5-(5-chloro-1H-indol-3-yl)isoxazol-3-yl)methyl)-6-(hydroxymethyl) tetrahydro-2H-pyran-3,4,5-triol], the viability at 10 µM in series [1] (setting [4]) was 93.7 ± 2.68%. For the same compound, in series [1] (setting [5]), the viability at 25 µM turned out to be 96 ± 1.81%. In addition, the viability at 50 µM in series [1] (setting [6]) turned out to be 87.9 ± 4.71%.

With `OC[C@H]1O[C@@H](Cc2cc(-c3c[nH]c4ccccc34)on2)[C@@H](O)[C@@H](O)[C@@H]1O` [Compound 41, (2 S,3 S,4 R,5 S,6 R)-2-((5-(1H-indol-3-yl)isoxazol-3-yl)methyl)-6-(hydroxymethyl) tetrahydro-2H-pyran-3,4,5-triol], the viability at 10 µM in series [1] (setting [4]) was found to be 89.2 ± 3.7%. The viability at 25 µM in series [1] (setting [5]) amounted to 81.2 ± 5.17%. In series [1] (setting [6]), the viability at 50 µM worked out at 74 ± 17.6%.

In the case of `O=[N+]([O-])c1ccc2[nH]cc(-c3cc(C[C@@H]4O[C@H](CO)[C@@H](O)[C@H](O)[C@@H]4O)no3)c2c1` [Compound 42, (2 R,3 S,4 R,5 S,6 S)-2-(hydroxymethyl)-6-((5-(5-nitro-1H-indol-3-yl)isoxazol-3-yl)methyl) tetrahydro-2H-pyran-3,4,5-triol], the viability at 10 µM in series [1] (setting [4]) turned out to be 92.6 ± 11.5%. Moreover, the viability at 25 µM in series [1] (setting [5]) came to 93.4 ± 15.7%. In addition, in series [1] (setting [6]), the viability at 50 µM amounted to 95.2 ± 13.6%.

As to `OC[C@H]1O[C@@H](Cc2cc(-c3c[nH]c4ccc(Br)cc34)on2)[C@@H](O)[C@@H](O)[C@@H]1O` [Compound 43, (2 S,3 S,4 R,5 S,6 R)-2-((5-(5-bromo-1H-indol-3-yl)isoxazol-3-yl)methyl)-6-(hydroxymethyl) tetrahydro-2H-pyran-3,4,5-triol], the viability at 10 µM in series [1] (setting [4]) turned out to be 96.6 ± 3.98%. Also, the viability at 25 µM in series [1] (setting [5]) amounted to 85.2 ± 2.93%. In addition, in series [1] (setting [6]), the viability at 50 µM worked out at 95.7 ± 3.26%.

For the compound `OC[C@H]1O[C@@H](Cc2cc(-c3c[nH]c4ccc(Cl)cc34)on2)[C@@H](O)[C@@H](O)[C@@H]1O` [Compound 44, (2 S,3 S,4 R,5 S,6 R)-2-((5-(5-chloro-1H-indol-3-yl)isoxazol-3-yl)methyl)-6-(hydroxymethyl) tetrahydro-2H-pyran-3,4,5-triol], the viability at 10 µM in series [1] (setting [4]) worked out at 83.9 ± 4.08%. The viability at 25 µM in series [1] (setting [5]) worked out at 82.9 ± 5.28%. Besides, the viability at 50 µM in series [1] (setting [6]) amounted to 81.7 ± 3.45%.

With `CC1=CC(=O)c2ccccc2C1=O` [Menadione, menadione, reference compound], in series [1] (Homo sapiens, MDA-MB-231, MDA-MB-231, positive control at 20 µM, read-out: Cell Viability (%) ± SD), the viability at 20 µM stood at 20.8 ± 8.7%.

With `COCCn1c2c([n+](Cc3cnccn3)c1C)C(=O)c1ccccc1C2=O` [YM155, reference compound], the viability at 0.02 µM in series [1] (Homo sapiens, MDA-MB-231, MDA-MB-231, positive control at 20 nM, read-out: Cell Viability (%) ± SD) is 27.4 ± 4.93%; in series [2] (MCF-7, positive control at 20 nM) it was 37.2 ± 1.7%; with MDA-MB-453 cells (MDA-MB-453, positive control at 20 nM), 33.2 ± 1.5%. In addition, in series [3] (positive control at 20 nM), the viability at 72 h, 0.02 µM was 48.2 ± 1.6%.

Turning to “(E)-4-(1H-indol-3-yl)-1-((2S,3S,4R,5S,6R)-3,4,5-trihydroxy-6-(hydroxymethyl) tetrahydro-2H-pyran-2-yl) but-3-en-2-one [Compound 19]”, the “Cell Viability (%) ± SD” value in series [1] (MDA-MB-231, 10 µM) was 102.51 ± 10.39%; in series [1] (MDA-MB-231, 25 µM), 89.20 ± 28.63%; in series [1] (MDA-MB-231, 50 µM) it was 71.48 ± 6.24%.

The record behind these values is article PMC7170901, “Design and efficient synthesis of pyrazoline and isoxazole bridged indole C-glycoside hybrids as potential anticancer agents” (Scientific Reports, 2020).
